The target in one assay is T1, dDATmfc (Drosophila melanogaster, UniProt Q7K4Y6, DEL162-202/F471L/L415A/V74A).
T1 construct: GFP-8x-His (C); made in house; host or cells: HEK293S GnTI- cells, BacMam baculovirus transduction
The assay can be described thus: biochemical. The following applies: read-out: Percent binding. Here is the method:
(§1) Binding assays were performed with 20 nM of purified dDAT protein by scintillation proximity assay. For determining nisoxetine Kd, [^3H] Nisoxetine (Perkin Elmer) (in 1:5 molar ratio) was used in the range of 0.1 nM to 500 nM with 100 µM desipramine added to the control samples. Competition assays were done with 50 nM [^3H] […] The assays were done in 1 mM DDM, 0.2 mM CHS, 20 mM Tris-Cl (pH 8), 300 mM NaCl and 5% glycerol. The background values were subtracted to plot the final curves in GraphPad prism v5.0.1 and the Kd values were calculated. The IC50 values obtained from binding competition assays were used to deduce the Ki values by Cheng–Prusoff’s equation.

Assay [1] concerns the target hDAT. The following applies: read-out: Uptake Inhibition Ki, hDAT; ref 3 (Supplementary: Bymaster et al., 2003); cited from earlier work.
For assay [2], the target named is T2, dDATfc (Drosophila melanogaster dopamine transporter functional construct) (Drosophila melanogaster, UniProt Q7K4Y6, DEL164-191/F471L/L415A/V74A).
T2 construct: expressed in transfected cells; host or cells: HEK293S GnTI- cells, transient transfection with pEG-BacMam plasmid
The assay can be described thus: cell-based. The following applies: for inhibition at 10 µM: Log[compound] M = -5. Here is the method:
(§2) Additional mutations in the subsite B or subsite C were incorporated into this gene used for carrying out the uptake assays.
(§3) Cells were transiently transfected with pEG-BacMam plasmid harboring the dDAT cGFP gene and incubated for 35–40 hrs at 37 °C with 5% CO2 and 80% humidity. […] The transport activity was arrested with 0.5 ml of pre-chilled assay buffer containing 100 μM desipramine (Sigma Aldrich) added to each reaction. The cells were then washed twice with the same buffer before solubilizing them in 0.1 ml of 20 mM DDM for one hour at room temperature. […] Following this, 0.1 ml of the supernatant was added to 0.5 ml of scintillation fluid (Ultima Gold, Perkin Elmer) and the radioactivity was estimated on MicroBeta scintillation counter (Perkin Elmer). […] The background-subtracted, dose–response plots were analyzed using GraphPad Prism v.5.0.1 and Ki values were determined from Cheng–Prusoff’s equation using the IC50 values obtained from the experiments.

The target in the next assay is T3, dDATfc A428S (Drosophila melanogaster, UniProt Q7K4Y6, A428S/DEL164-191/F471L/L415A/V74A).
T3 construct: expressed in transfected cells; host or cells: HEK293S GnTI- cells, transient transfection with pEG-BacMam plasmid
The assay can be described thus: cell-based. Here is the method: (§4) Earlier studies have posited that non-conserved residues in the primary binding site are responsible for selective inhibition of biogenic amine uptake[57],[58]. […] Effects of these mutations were analyzed through uptake inhibition using the three SNRIs employed in this study (Fig. 6a–c). […] Supplementary Table 2)[56],[59].
as §2, §3

A further assay deals with T4, dDATfc A117S (Drosophila melanogaster, UniProt Q7K4Y6, A117S/DEL164-191/F471L/L415A/V74A).
T4 construct: expressed in transfected cells; host or cells: HEK293S GnTI- cells, transient transfection with pEG-BacMam plasmid
In words: cell-based. Here is the method:
as §4, §2, §3

For assay [3], the target named is hDAT. On the set-up: method as in earlier work. The following applies: vs. RTI-55; ref 4 (Supplementary: Vaishnavi et al., 2004); read-out: Binding Inhibition (Ki), hDAT; cited from earlier work.
A further assay concerns the target T5, dDATfc A117S/A428S (Drosophila melanogaster, UniProt Q7K4Y6, A117S/A428S/DEL164-191/F471L/L415A/V74A).
T5 construct: expressed in transfected cells; host or cells: HEK293S GnTI- cells, transient transfection with pEG-BacMam plasmid
In words: cell-based. It counts as cell-based. Here is the method:
as §4, §2, §3

Assay [4] has as its system hNET. As to conditions: NET over DAT; cited from earlier work.
A further assay has as its target T6, dDATNET (Drosophila melanogaster, UniProt Q7K4Y6, D121G/DEL162-202/F471L/L415A/S426M/V74A).
T6 construct: GFP-8x-His (C); made in house; host or cells: HEK293S GnTI- cells, BacMam baculovirus transduction
In words: biochemical. The class given is binding. Here is the method:
as §1

The subject of assay [5] is hDAT. The following applies: read-out: KM of transport by hDAT; cited from earlier work.
For assay [6], the system named is hNET. As to conditions: read-out: KM of transport by hNET; cited from earlier work.
Setting [7] is: HEK293S, 0.5 h, read-out: Percent inhibition of DA uptake.
Setting [8] is: 0.5 h, read-out: Percent inhibition of DA uptake.
[9] abbreviates: HEK293S, 0.5 h, read-out: Percent inhibition of DA uptake, dDATfc, single replicates.

Here are results for 4 compounds from article PMC8044178, “Structural basis of norepinephrine recognition and transport inhibition in neurotransmitter transporters” (Nature Communications, 2021).

Several values for one entry are separate records, joined by “and”; a condition that tells them apart may be missing. Equal values may be shown once. Read-outs that look alike come from different tables or passages of the source.

A word on the Ki: it is the dissociation constant of the complex between target and ligand, obtained from inhibition or displacement. For orientation: inhibition means the change of the read-out against control, counted positive when it falls. Take `CNCC[C@H](Oc1cccc2ccccc12)c1cccs1` [S-duloxetine]: the remaining activity at 0.003 µM on dDATmfc came out at 86.1%. Besides, the remaining activity at 0.1 µM at dDATmfc was 22.9%. Also, the Ki on hDAT [1] is 0.37 µM; on hDAT [3], 0.23 ± 0.017 µM. Besides, the inhibition at 0.001 µM in assay [2] (setting [7]) was 96.4%; at dDATfc A117S/A428S (0.5 h, read-out: Percent inhibition of DA uptake, A117S_A428S, Log[compound] M = -9, single replicates) it was 97.8%. In addition, in assay [2] (setting [7]), the inhibition at 0.003 µM turned out to be 88.9%. The inhibition at 0.01 µM in assay [2] (setting [7]) worked out at 85.9%. Also, the inhibition at 0.03 µM in [2] (setting [7]) is 77.7%; on dDATfc A428S (setting [8]) it was 94.4%; on dDATfc A117S (setting [8]) it was 96.1%. The inhibition at 0.1 µM stood at 45% in assay [2] (setting [7]); 80.2% on dDATfc A428S (setting [8]); 76.7% on dDATfc A117S/A428S (0.5 h, read-out: Percent inhibition of DA uptake, A117S_A428S, Log[compound] M = -7, single replicates). Further, the inhibition at 0.3 µM in assay [2] (setting [7]) turned out to be 21.9%; on dDATfc A428S (setting [8]), 45.5%; at dDATfc A117S/A428S (0.5 h, read-out: Percent inhibition of DA uptake, A117S_A428S, Log[compound] M = -6.52288, single replicates), 44%. Further, the inhibition at 1 µM on dDATfc A428S (setting [8]) came to 9.62%; at dDATfc A117S/A428S (0.5 h, read-out: Percent inhibition of DA uptake, A117S_A428S, Log[compound] M = -6, single replicates) it was 11.2%. The “increase in IC50 values, combination of A428S and A117S” value on dDATfc A117S/A428S (double mutant vs dDATfc) is given as ~ 3 fold.
As usually defined, the IC50 is the concentration that gives 50% inhibition. Read a high IC50 as a need for much substance. For `COc1cccc(C2(O)CCCCC2CN(C)C)c1` (centres unmarked) [Tramadol, tramadol], the “greater affinity to NET over DAT” value in the assay with hNET [4] is listed as ~ 50 fold. For the same compound, on dDATmfc (DATmfc, Log Tramadol (M) -3, replicate values), the remaining activity at 1000 µM worked out at 6.84%. For the same compound, the remaining activity at 100 µM on dDATmfc (DATmfc, Log Tramadol (M) -4, replicate values) was found to be 23.9%; on dDATNET (DAT NET, Log Tramadol (M) -4, replicate values, read-out: Percent binding), 43.3%. For the same compound, at dDATmfc (DATmfc, Log Tramadol (M) -5, replicate values), the remaining activity at 10 µM turned out to be 74.2%. For the same compound, at dDATmfc (DATmfc, Log Tramadol (M) -6, replicate values), the remaining activity at 1 µM stood at 91.4%. Also, the remaining activity at 3 µM at dDATmfc was found to be 91%. For the same compound, the remaining activity at 30 µM was 44% on dDATmfc and 60% at dDATNET (read-out: Percent binding). For the same compound, the IC50 is 24.7 ± 2.8 µM in assay [2], 50.5 ± 5.4 µM on dDATfc A428S, 35.8 ± 2.2 µM on dDATfc A117S and 130 ± 12.2 µM against dDATfc A117S/A428S. Further, the Ki was 15.9 ± 1.8 µM in assay [2]; 5.31 µM and 5.3 µM on dDATNET (Binding Ki with dDATNET (vs. Nisoxetine)). The inhibition at 30 µM in [2] (setting [7]) came out at 38.5%; on dDATfc A117S (setting [8]), 61.3%. In addition, the inhibition at 100 µM stood at 32.2% on dDATfc A428S (0.5 h, A428S, Log[compound] M = -4, single replicates, read-out: Percent inhibition of DA uptake); 29.4% on dDATfc A117S (0.5 h, A117S, Log[compound] M = -4, single replicates, read-out: Percent inhibition of DA uptake); 48.1% at dDATfc A117S/A428S (0.5 h, read-out: Percent inhibition of DA uptake, A117S_A428S, Log[compound] M = -4, single replicates). Further, the inhibition at 1 µM on dDATfc A428S (0.5 h, A428S, Log[compound] M = -6, single replicates, read-out: Percent inhibition of DA uptake) was determined as 92.4%; at dDATfc A117S (0.5 h, A117S, Log[compound] M = -6, single replicates, read-out: Percent inhibition of DA uptake) it was 105%. The inhibition at 300 µM at dDATfc A428S (setting [8]) was found to be 11.6%; at dDATfc A117S (setting [8]) it was 13.1%. Also, on dDATfc A117S (setting [8]), the inhibition at 3 µM turned out to be 105%. Moreover, the inhibition at 3000 µM at dDATfc A117S (setting [8]) was determined as 3.78%. Moreover, the remaining activity at 300 µM at dDATNET (read-out: Percent binding) was determined as 17.9%. Besides, the remaining activity at 3000 µM at dDATNET (read-out: Percent binding) came to 4.79%.
What is called Km is the substrate concentration at which the rate is half of its maximum. In the case of `NCCc1ccc(O)c(O)c1` [DA, dopamine], the values for the Km in the assay with hDAT [5] and with hNET [6] were 2.54 µM and 0.67 µM, respectively. In assay [2] (HEK293S, 0.5 h, read-out: Percent inhibition of DA uptake, dDATfc, Log[compound] M = -4.52288, single replicates), the inhibition at 30 µM was determined as 8.62%. Moreover, the inhibition at 10 µM in [2] (setting [9]) amounted to 20%. The inhibition at 3 µM in assay [2] (HEK293S, 0.5 h, read-out: Percent inhibition of DA uptake, dDATfc, Log[compound] M = -5.52288, single replicates) stood at 56.5%. Also, the inhibition at 0.1 µM in assay [2] (HEK293S, 0.5 h, read-out: Percent inhibition of DA uptake, dDATfc, Log[compound] M = -7, single replicates) turned out to be 91.1%. Also, the inhibition at 0.03 µM in assay [2] (HEK293S, 0.5 h, read-out: Percent inhibition of DA uptake, dDATfc, Log[compound] M = -7.52288, single replicates) is 92.7%.
Consider `NCC(O)c1ccc(O)c(O)c1` [NE, L-norepinephrine], for which the Km is 20 µM in the assay on hDAT [5] and 2.6 µM in the assay with hNET [6]. Besides, the inhibition at 3000 µM in assay [2] (HEK293S, 0.5 h, read-out: Percent inhibition of DA uptake, dDATfc, Log[compound] M = -2.52288, single replicates) was 2.69%. In [2] (HEK293S, 0.5 h, read-out: Percent inhibition of DA uptake, dDATfc, Log[compound] M = -4, single replicates), the inhibition at 100 µM is 29.3%. Moreover, the inhibition at 10 µM in [2] (setting [9]) amounted to 64.5%. Moreover, the inhibition at 1 µM in assay [2] (HEK293S, 0.5 h, read-out: Percent inhibition of DA uptake, dDATfc, Log[compound] M = -6, single replicates) was determined as 92.2%. Further, the Ki in assay [2] (Ki, inhibition of [3H] dopamine uptake) was 19.1 µM and 19 µM.
